Assay results: PubChem BioAssay AID256 (DTP/NCI, 2004)
Several values for one entry are separate records, joined by “and”; a condition that tells them apart may be missing. Equal values may be shown once. Inconclusive results and toxic doses are left out. How the source made its calls: active means survival T/C of 150% or more; inactive means T/C below 125% in these data.

Test system: CD2F1 mice, L1210 leukemia ip, survival T/C
Experiment: NCI In Vivo Anticancer Drug Screen. Data for tumor model L1210 Leukemia (intraperitoneal) in CD2F1 (CDF1) mice
Details: higher = longer survival
Outline: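 Antitumor effect is scored in animals hosting a serially transplanted tumor. Values compare compound-dosed animals against vehicle-only controls as a simple quotient.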

[1] = endpoint: mean survival time, dose: 75.0 mg/kg/injection, schedule: Q01DX001 (ip), vehicle: other
[2] = endpoint: mean survival time, dose: 150.0 mg/kg/injection, schedule: Q01DX001 (ip), vehicle: other
[3] = endpoint: mean survival time, dose: 300.0 mg/kg/injection, schedule: Q01DX001 (ip), vehicle: other
[4] = endpoint: mean survival time, dose: 100.0 mg/kg/injection, schedule: Q04DX003 (ip), vehicle: saline with Tween-80
[5] = endpoint: mean survival time, dose: 200.0 mg/kg/injection, schedule: Q04DX003 (ip), vehicle: saline with Tween-80
[6] = endpoint: mean survival time, dose: 400.0 mg/kg/injection, schedule: Q04DX003 (ip), vehicle: saline with Tween-80
[7] = endpoint: mean survival time, dose: 100.0 mg/kg/injection, schedule: Q01DX001 (ip), vehicle: saline with Tween-80
[8] = endpoint: mean survival time, dose: 200.0 mg/kg/injection, schedule: Q01DX001 (ip), vehicle: saline with Tween-80
[9] = endpoint: mean survival time, dose: 50.0 mg/kg/injection, schedule: Q01DX009 (ip), vehicle: saline
[10] = endpoint: mean survival time, dose: 75.0 mg/kg/injection, schedule: Q01DX001 (ip), vehicle: saline
[11] = endpoint: mean survival time, dose: 150.0 mg/kg/injection, schedule: Q01DX001 (ip), vehicle: saline
[12] = endpoint: mean survival time, dose: 100.0 mg/kg/injection, schedule: Q01DX009 (ip), vehicle: saline with Tween-80
[13] = endpoint: mean survival time, dose: 200.0 mg/kg/injection, schedule: Q01DX009 (ip), vehicle: saline with Tween-80
[14] = endpoint: mean survival time, dose: 100.0 mg/kg/injection, schedule: Q04DX002 (ip), vehicle: saline with Tween-80
[15] = endpoint: mean survival time, dose: 200.0 mg/kg/injection, schedule: Q04DX002 (ip), vehicle: saline with Tween-80
[16] = endpoint: mean survival time, dose: 400.0 mg/kg/injection, schedule: Q04DX002 (ip), vehicle: saline with Tween-80
[17] = endpoint: mean survival time, dose: 25.0 mg/kg/injection, schedule: Q04DX002 (ip), vehicle: saline with Tween-80
[18] = endpoint: mean survival time, dose: 50.0 mg/kg/injection, schedule: Q04DX002 (ip), vehicle: saline with Tween-80

Measured: T/C

COC1OC(COC(=O)c2ccccc2)C(N(C)C(C)=O)C1OC(=O)c1ccccc1 (stereo unspecified)
inactive: [1] 97 % of control | [2] 103 % of control | [3] 91 % of control

CC1=CS(=O)(=O)CC(=O)N1
inactive: [4] 103 % of control | [5] 98 % of control | [6] 95 % of control

O=[N+]([O-])c1ccc(C[N+]23CCN(CC2)CC3)cc1
inactive: [7] 100 % of control | [8] 106 % of control

CC[S+](CC)CC
inactive: [9] 100 % of control | endpoint: mean survival time, dose: 100.0 mg/kg/injection, schedule: Q01DX009 (ip), vehicle: saline 97 % of control

COC(=O)C(CCCCN)NC(=O)c1ccccc1 (stereo unspecified)
inactive: [4] 101 % of control | [5] 103 % of control | [6] 101 % of control

COc1ccc2c(c1O)CNCC2c1ccc(O)cc1O (stereo unspecified)
inactive: [10] 100 % of control | [11] 98 % of control

COC(=O)c1cc2ccccc2[nH]c1=O
inactive: [1] 97 % of control | [2] 96 % of control | [3] 97 % of control

CCC1(O)C(=O)OCc2c1cc1n(c2=O)Cc2cc3cc(OC)c(OC)cc3nc2-1 (stereo unspecified)
inactive: endpoint: median survival time, dose: 6.25 mg/kg/injection, schedule: Q04DX002 (ip), vehicle: saline with Tween-80 103 % of control | endpoint: median survival time, dose: 12.5 mg/kg/injection, schedule: Q04DX002 (ip), vehicle: saline with Tween-80 101 % of control | endpoint: median survival time, dose: 25.0 mg/kg/injection, schedule: Q04DX002 (ip), vehicle: saline with Tween-80 103 % of control | endpoint: median survival time, dose: 50.0 mg/kg/injection, schedule: Q04DX002 (ip), vehicle: saline with Tween-80 94 % of control

CC(C)=C/C(C)=C(/C#N)C(=O)OC(C)C
inactive: [10] 97 % of control | [11] 97 % of control

N#C/C(=C(\N)c1ccccc1)c1ccccc1
inactive: endpoint: mean survival time, dose: 100.0 mg/kg/injection, schedule: Q01DX001 (ip), vehicle: Klucel (hydroxypropylcellulose) (HPC) 93 % of control | endpoint: mean survival time, dose: 400.0 mg/kg/injection, schedule: Q01DX001 (ip), vehicle: Klucel (hydroxypropylcellulose) (HPC) 112 % of control

O=c1[nH]c(=O)n(C2CC(O)C(CO)O2)cc1CN1CCCC1 (stereo unspecified)
inactive: endpoint: mean survival time, dose: 6.25 mg/kg/injection, schedule: Q01DX005 (ip), vehicle: water 95 % of control | endpoint: mean survival time, dose: 12.5 mg/kg/injection, schedule: Q01DX005 (ip), vehicle: water 109 % of control | endpoint: mean survival time, dose: 25.0 mg/kg/injection, schedule: Q01DX005 (ip), vehicle: water 87 % of control | endpoint: mean survival time, dose: 50.0 mg/kg/injection, schedule: Q01DX005 (ip), vehicle: water 102 % of control | endpoint: mean survival time, dose: 100.0 mg/kg/injection, schedule: Q01DX005 (ip), vehicle: water 102 % of control | endpoint: mean survival time, dose: 200.0 mg/kg/injection, schedule: Q01DX005 (ip), vehicle: water 96 % of control | endpoint: mean survival time, dose: 400.0 mg/kg/injection, schedule: Q01DX005 (ip), vehicle: water 96 % of control

CCCC(=O)O.CCCC(=O)O.CCCC(=O)O.CCCC(=O)O.[Rh].[Rh]
inactive: endpoint: mean survival time, dose: 0.03 mg/kg/injection, schedule: Q01DX009 (ip), vehicle: saline + alcohol 100 % of control and 104 % of control | endpoint: mean survival time, dose: 0.06 mg/kg/injection, schedule: Q01DX009 (ip), vehicle: saline + alcohol 93 % of control and 104 % of control | endpoint: mean survival time, dose: 0.12 mg/kg/injection, schedule: Q01DX009 (ip), vehicle: saline + alcohol 96 % of control and 110 % of control | endpoint: mean survival time, dose: 0.25 mg/kg/injection, schedule: Q01DX009 (ip), vehicle: saline + alcohol 100 % of control and 104 % of control | endpoint: mean survival time, dose: 0.5 mg/kg/injection, schedule: Q01DX009 (ip), vehicle: saline + alcohol 100 % of control and 112 % of control | endpoint: mean survival time, dose: 1.0 mg/kg/injection, schedule: Q01DX009 (ip), vehicle: saline + alcohol 102 % of control and 110 % of control

O=C1OC(CBr)CC1(c1ccccc1)c1ccccc1 (stereo unspecified)
inactive: [7] 95 % of control | [12] 102 % of control | [8] 100 % of control | [13] 100 % of control | endpoint: mean survival time, dose: 400.0 mg/kg/injection, schedule: Q01DX001 (ip), vehicle: saline with Tween-80 100 % of control | endpoint: mean survival time, dose: 400.0 mg/kg/injection, schedule: Q01DX009 (ip), vehicle: saline with Tween-80 102 % of control

COc1ccc(NC(=O)Oc2ccc3ccccc3c2)cc1
inactive: [14] 87 % of control | [15] 93 % of control | [16] 93 % of control

O=C(OC1(c2ccccc2)C2CCC1CC2)c1ccc([N+](=O)[O-])cc1 (stereo unspecified)
inactive: endpoint: mean survival time, dose: 12.5 mg/kg/injection, schedule: Q04DX002 (ip), vehicle: saline with Tween-80 96 % of control | [17] 93 % of control | [18] 101 % of control

CCCCCC/C=N/[N+](C)(C)C
inactive: endpoint: mean survival time, dose: 12.5 mg/kg/injection, schedule: Q01DX009 (ip), vehicle: saline 114 % of control | endpoint: mean survival time, dose: 25.0 mg/kg/injection, schedule: Q01DX009 (ip), vehicle: saline 101 % of control | [9] 101 % of control and 107 % of control

O=C1CC(=O)NC(=O)C1
inactive: endpoint: mean survival time, dose: 12.5 mg/kg/injection, schedule: Q01DX009 (ip), vehicle: water 95 % of control | endpoint: mean survival time, dose: 25.0 mg/kg/injection, schedule: Q01DX009 (ip), vehicle: water 92 % of control | endpoint: mean survival time, dose: 50.0 mg/kg/injection, schedule: Q01DX009 (ip), vehicle: water 94 % of control | endpoint: mean survival time, dose: 100.0 mg/kg/injection, schedule: Q01DX009 (ip), vehicle: water 92 % of control | endpoint: mean survival time, dose: 200.0 mg/kg/injection, schedule: Q01DX009 (ip), vehicle: water 94 % of control

O=C1CSC(=S)N1/N=C/c1ccccc1Cl
inactive: [1] 96 % of control | [2] 96 % of control | [3] 94 % of control

N.O=S(=O)(O)O.[Al]
inactive: endpoint: mean survival time, dose: 50.0 mg/kg/injection, schedule: Q01DX009 (ip), vehicle: saline with Tween-80 97 % of control | [12] 91 % of control | [4] 94 % of control | [13] 96 % of control | [5] 99 % of control

O=S1OCC2(CO1)COS(=O)OC2 (stereo unspecified)
inactive: endpoint: mean survival time, dose: 3.13 mg/kg/injection, schedule: Q01DX001 (ip), vehicle: saline with Tween-80 108 % of control | endpoint: mean survival time, dose: 6.25 mg/kg/injection, schedule: Q01DX001 (ip), vehicle: saline with Tween-80 100 % of control

CCC1CCCCN1C (stereo unspecified)
inactive: [4] 90 % of control

N#CCCC(C#N)(CCC#N)C(N)=O
inactive: [4] 98 % of control | [5] 98 % of control | [6] 107 % of control

O=c1[nH]c2ccccc2c2c3ccccc3nn12
inactive: [17] 113 % of control | [18] 103 % of control | [14] 96 % of control and 100 % of control | [15] 100 % of control and 106 % of control | [16] 103 % of control

OCC1OC(n2nnc3cc[nH]c(=S)c32)C(O)C1O (stereo unspecified)
inactive: endpoint: mean survival time, dose: 11.9 mg/kg/injection, schedule: Q01DX005 (ip), vehicle: water 96 % of control | endpoint: mean survival time, dose: 23.8 mg/kg/injection, schedule: Q01DX005 (ip), vehicle: water 113 % of control

c1ccc(-c2c[s+]cc(-c3ccccc3)c2)cc1
inactive: endpoint: mean survival time, dose: 50.0 mg/kg/injection, schedule: Q01DX001 (ip), vehicle: saline with Tween-80 109 % of control | [7] 104 % of control | [8] 110 % of control

COC(=O)C(Cc1ccc(N(CCCl)CCCl)cc1)N=NNc1nc[nH]c1C(N)=O (stereo unspecified)
inactive: endpoint: mean survival time, dose: 88.0 mg/kg/injection, schedule: Q01DX001 (ip), vehicle: steriod suspending solution 116 % of control | endpoint: mean survival time, dose: 133.0 mg/kg/injection, schedule: Q01DX001 (ip), vehicle: steriod suspending solution 115 % of control | endpoint: mean survival time, dose: 300.0 mg/kg/injection, schedule: Q01DX001 (ip), vehicle: steriod suspending solution 116 % of control
